11 compounds from US10857105B2, “Compounds and compositions for intracellular delivery of therapeutic agents” (ModernaTX, Inc., priority 2017, dated 2020) can be followed below.

Series [1] can be described thus: Particle size and polydispersity index of nanoparticle compositions (Zetasizer Nano ZS). The class given is physicochemical. Here is the method: A Zetasizer Nano ZS (Malvern Instruments Ltd, Malvern, Worcestershire, UK) can be used to determine the particle size, the polydispersity index (PDI) and the zeta potential of the nanoparticle compositions in 1×PBS in determining particle size and 15 mM PBS in determining zeta potential.
(§1) Initial studies were performed to compare the delivery efficiency of nanoparticle compositions including various compounds according to Formula (I), (IA), (IB), (II), (IIa), (IIb), (IIc), (IId), (IIe), (IIf), (IIg), or (III). The cationic lipid MC3 is a current standard in the art. Accordingly, the standard MC3 formulation including about 50 mol % MC3, about 10 mol % DSPC, about 38.5 mol % cholesterol, and about 1.5 mol % PEG-DMG was used as a basis for this study. Nanoparticle compositions including DSPC as a phospholipid, cholesterol as a structural lipid, PEG-DMG as a PEG lipid, an RNA, and a compound according to Formula (I), (IA), (IB), (II), (IIa), (IIb), (IIc), (IId), (IIe), (IIf), (IIg), or (III) selected from Compounds 1-159, 168-170, and 173-175 were prepared according to or via methods similar to those described in Examples 1 and 2. The ratios of the lipids were 50:10:38.5:1.5 mol % for the lipid according to Formula (I), (IA), (IB), (II), (IIa), (IIb), (IIc), (IId), (IIe), (IIf), (IIg), or (III):DSPC:cholesterol:PEG-DMG. The RNA used was an mRNA encoding luciferase (Luc) or hEPO, wherein each uridine was replaced N1-methyl pseudouridine. Tables 1A-1E summarize the content and characteristics of the formulations.

The nature of series [2]: Encapsulation efficiency of RNA in nanoparticle compositions (RIBOGREEN assay). The format is physicochemical. Here is the method: For nanoparticle compositions including an RNA, a QUANT-IT™ RIBOGREEN® RNA assay (Invitrogen Corporation Carlsbad, Calif.) can be used to evaluate the encapsulation of an RNA by the nanoparticle composition. The samples are diluted to a concentration of approximately 5 μg/mL, in a TE buffer solution (10 mM Tris-HCl, 1 mM EDTA, pH 7.5). 50 μL of the diluted samples are transferred to a polystyrene 96 well plate and either 50 μL of TE buffer or 50 μL of a 2% Triton X-100 solution is added to the wells. The plate is incubated at a temperature of 37° C. for 15 minutes. The RIBOGREEN® reagent is diluted 1:100 in TE buffer, and 100 μL of this solution is added to each well. The fluorescence intensity can be measured using a fluorescence plate reader (Wallac Victor 1420 Multilabel Counter; Perkin Elmer, Waltham, Mass.) at an excitation wavelength of, for example, about 480 nm and an emission wavelength of, for example, about 520 nm. The fluorescence values of the reagent blank are subtracted from that of each of the samples and the percentage of free RNA is determined by dividing the fluorescence intensity of the intact sample (without addition of Triton X-100) by the fluorescence value of the disrupted sample (caused by the addition of Triton X-100).
as §1

A further series deals with modified luciferase. The series is described as follows: Luciferase expression in liver, lung, spleen and femur 6 hours after intravenous administration to mice. The format is in vivo. The note with it: 6 hours after intravenous 0.5 mpk, mice. As for the experimental part: The efficacy of the nanoparticle compositions presented in Table 1A was further evaluated by measuring the expression of modified luciferase in the liver, lung, spleen, and femur upon administration of a given composition. Formulations were administered intravenously to mice (n=3) at a dosage of 0.5 mpk and bioluminescence measured after 6 hours. The standard MC3 formulation and a PBS control were also tested. […] Flux in the liver was lowest for compositions including Compounds 58, 59, 137, and 141. Flux in the spleen was highest for compositions including Compounds 4, 7, 33, 34, 48, 53, 108, 129, 130, and 148, and lowest for compositions including Compounds 9, 59, 124, and 141.

Where [3] appears, read: Table 1A, lipid:DSPC:cholesterol:PEG-DMG 50:10:38.5:1.5 mol %.
[4] abbreviates: Table 1B, formulated with hEPO mRNA.

In turn, `CCCCCCCCCOC(=O)CCCCCCCN(CCC#N)CCCCCCCC(=O)OC(CCCCCCCC)CCCCCCCC` [Compound 21, Heptadecan-9-yl 8-((2-cyanoethyl)(8-(nonyloxy)-8-oxooctyl)amino) octanoate] yielded a Size in series [1] (setting [3]) of 53.5 nm. Besides, in series [2] (setting [3]), the EE is reported as −15.1%.
With `CCCCCCCCCOC(=O)CCCCCCCN(CCO)CCCCCCCC(=O)OC(CC)CCCCCCCC` (stereo not drawn) [Compound 35, nonyl 8-((2-hydroxyethyl)(8-oxo-8-(undecan-3-yloxy)octyl)amino) octanoate], the EE in series [2] (setting [3]) was 90.82%. Moreover, in the series with modified luciferase, the “Total Flux, Liver” value is on record as 1.63E+08; the “Total Flux, Lung” value is reported as 2.06E+06; the “Total Flux, Spleen” value worked out at 1.23E+08.
On the same counts, the results for `CCCCCCCCCOC(=O)CCCCCCCN(CCO)CCCCCCCC(=O)OC(C)CCCCCCCC` (stereo not drawn) [Compound 36, decan-2-yl 8-((2-hydroxyethyl)(8-(nonyloxy)-8-oxooctyl)amino) octanoate] are 81.45%, 2.65E+07, 5.82E+05 and 6.14E+07.
As to `CCCCCCCCC(CCCCCCCC)OC(=O)CCCCCCCN(CCO)CCCC(=O)OCCCC` [Compound 51, heptadecan-9-yl 8-((4-butoxy-4-oxobutyl)(2-hydroxyethyl)amino) octanoate], the EE in series [2] (setting [3]) was 89.83%. Also, in the series with modified luciferase, the “Total Flux, Liver” value amounted to 2.49E+07; the “Total Flux, Lung” value worked out at 3.67E+05; the “Total Flux, Spleen” value amounted to 2.80E+07.
The like results for `CCCCCCCCCOC(=O)CCCCCCCN(CCO)CCCCCCCC(=O)OC(CC)CC` [Compound 59, nonyl 8-((2-hydroxyethyl)(8-oxo-8-(pentan-3-yloxy)octyl)amino) octanoate] were, in that order, 94.44%, 2.87E+05, 4.41E+04 and 9.68E+04.
For the compound `CCCCCCCCCOC(=O)CCCCCCCN(CCCCCCCC(=O)OC(CCCCCCCC)CCCCCCCC)CCC(=O)O` [Compound 125, 3-((8-(Heptadecan-9-yloxy)-8-oxooctyl)(8-(nonyloxy)-8-oxooctyl)amino)propanoic acid], the Size in series [1] (setting [3]) came to 90.9 nm. Moreover, the EE in series [2] (setting [3]) is reported as 79.6%.
The compound `CCCCCCCCCOC(=O)CCCCCCCN(CCCCCCCC(=O)OC(CCCCCCCC)CCCCCCCC)CCCN(C)S(C)(=O)=O` [Compound 173, Heptadecan-9-yl 8-((3-(N-methylmethylsulfonamido)propyl)(8-(nonyloxy)-8-oxooctyl)amino)octanoate] gave a Size in series [1] (setting [3]) of 75.5 nm. For the same compound, the EE in series [2] (setting [3]) worked out at 92.89%.
On the same counts, the results for `CCCCCCCCCOC(=O)CCCCCCCN(CCCCCCCC(=O)OC(CCCCCCCC)CCCCCCCC)CCCOC(=O)NC` [Compound 175, Heptadecan-9-yl 8-((3-((methylcarbamoyl)oxy)propyl)(8-(nonyloxy)-8-oxooctyl)amino)octanoate] are 65.7 nm and 94.8%.
On the same counts, the results for `CCCCCCCCCOC(=O)CCCCCCCN(CCCCCCCC(=O)OC(CCCCCCCC)CCCCCCCC)CCCn1ccnn1` [Compound 179, Heptadecan-9-yl 8-((3-(1H-1,2,3-triazol-1-yl)propyl)(8-(nonyloxy)-8-oxooctyl)amino)octanoate] are 71.6 nm and 94.7%.
Compound `CCCCCCCCC(CCCCCCCC)OC(=O)CCCCCCCN(CCO)CCCCCC(=O)OC(C)CCCCCCCCOC(C)=O` (stereo not drawn) [Compound 235, Heptadecan-9-yl 8-((6-((10-acetoxydecan-2-yl)oxy)-6-oxohexyl)(2-hydroxyethyl)amino)octanoate] yielded a Size in series [1] (setting [4]) of 228 nm. In addition, in series [2] (setting [4]), the EE is on record as 40.9%.
On the same counts, the results for `CCCCCCCCCOC(=O)CCCCCCCN(CCCCCCCC(=O)OC(CCCCCCCC)CCCCCCCC)CCCC(N)=O` [Compound 243, Heptadecan-9-yl 8-((4-amino-4-oxobutyl)(8-(nonyloxy)-8-oxooctyl)amino)octanoate] are 90.6 nm and 99.4%.
